Measured values as given in PMC9227106 (Viruses, 2022).
Values joined by “and” are separate entries in the source; they are usually repeats but may differ in a detail not shown here. Identical values can stand only once. Like-named read-outs stand apart in the source and are kept apart here.

Legend:
[1] = Cell-based cytotoxicity analysis, WST-1 assay (HeLa cell); conditions: human; for viability at 48 h, 10 µM: vs DMSO; for CC50: 50% cytotoxic concentration, HeLa cells, WST-1
[2] = tested on: Vpr-induced G2/M arrest in Vpr transfected HeLa cells; assay: Cell-based G2 arrest inhibition assay using […]; design: species or system human; conditions: 10 µM, 44 h; for G2 arrest recover (CELAVIEW) recover rate vs DMSO(%): added 4 h post-transfection
[3] = tested on: Vpr-induced G2/M arrest in Vpr transfected HeLa cells; assay: Analysis of the cell cycle using flow cytometry; format: cell-based, human; conditions: for recovery of the G2-arrest mediated by Vpr (flow cytometry): 10 μM, Vpr-expressing HeLa cells, result in words; for G2 arrest recover (Flow cytometry) Vpr G1% / G2 arrest recover (Flow cytometry) Vpr G2% / G2 arrest recover (Flow cytometry) Vpr G2/G1: Flag-Vpr transfected HeLa; for G2 arrest recover (Flow cytometry) Vpr G1% / G2 arrest recover (Flow cytometry) Vpr G2% / G2 arrest recover (Flow cytometry) Vpr G2/G1 / G2 arrest recover (Flow cytometry) ZsG G1% / G2 arrest recover (Flow cytometry) ZsG G2% / G2 arrest recover (Flow cytometry) ZsG G2/G1: 10 µM; for G2 arrest recover (Flow cytometry) ZsG G1% / G2 arrest recover (Flow cytometry) ZsG G2% / G2 arrest recover (Flow cytometry) ZsG G2/G1: control vector (ZsG) transfected HeLa
[4] = Cell-based cytotoxicity analysis, WST-1 assay (MDM cell); conditions: human
HIV-1 NF462 = assay: Inhibition assay of HIV replication in HIV-infected MDM (p24 ELISA); format: cell-based; conditions: for inhibition of HIV-1 replication in MDM / inhibition at 10 µM: 10 µM; for inhibition of HIV-1 replication in MDM: two healthy donors 1 and 2, result in words; for inhibition at 10 µM: 8 days; for IC50: read-out: MDM IC50; for MDM SI: selective index, calculated as CC50/IC50 in MDM
GST-tagged Vpr protein = target: T1, GST-tagged Vpr protein (Human immunodeficiency virus type 1 group M subtype B, UniProt P12520); assay: Surface plasmon resonance (SPR) binding analysis; design: species or system HIV-1; conditions: for direct binding to Vpr (SPR): 50 μM compound, GST-Vpr on sensor chip, result in words; for Vpr Binding Kd: SPR (Biacore), GST-Vpr, 3.13 to 100 µM, two independent experiments
T1 construct: made in house; host or cells: E. coli

Flag-Vpr in HeLa cells [5] = assay: Localization of Vpr visualized by confocal microscopy; format: cell-based, HIV-1; conditions: 10 μM, 44 h post-treatment
Flag-Vpr in HeLa cells [6] = assay: Expression level of Vpr assessed by Western blotting analysis; format: cell-based, HIV-1; conditions: 10 μM, 44 h post-treatment
[7] = average of n=1 and n=2, read-out: HeLa viability (%) AVERAGE
[8] = replicate 1, read-out: HeLa viability (%) viability n=1
[9] = replicate 2, read-out: HeLa viability (%) viability n=2
[10] = Human immunodeficiency virus 1, MDM donor 1, p24 ELISA, read-out: HIV replication inhibition (%) Donor 1
[11] = Human immunodeficiency virus 1, MDM donor 2, p24 ELISA, read-out: HIV replication inhibition (%) Donor 2
[12] = Human immunodeficiency virus 1, HIV-1 NF462-infected MDM, donors 1 and 4, 8 days, p24 ELISA

T1 sequence (P12520 whole entry): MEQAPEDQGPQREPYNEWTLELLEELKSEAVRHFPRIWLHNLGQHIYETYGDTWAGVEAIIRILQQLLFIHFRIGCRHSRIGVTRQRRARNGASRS

SMILES: COCCCNC(=O)C(=O)N/N=C/c1c(O)ccc2ccccc12 [VTD227, N-[(1E)-2-(2-hydroxynaphthyl)-1-azavinyl]-N′-(3-methoxypropyl)ethane-1,2-diamide]
- viability at 48 h, 10 µM [1, 7]: 89.2%
- viability at 48 h, 10 µM [1, 8]: 84.2%
- viability at 48 h, 10 µM [1, 9]: 94.2%
- CC50 [1]: 99 ± 22 µM
- G2 arrest recover (CELAVIEW) cell count vs DMSO [2]: 72.8
- G2 arrest recover (CELAVIEW) recover rate vs DMSO(%) [2]: 60.0%
- recovery of the G2-arrest mediated by Vpr (flow cytometry) [3]: recovered the G2-arrest mediated by Vpr
- G2 arrest recover (Flow cytometry) Vpr G1% [3]: 41.76%
- G2 arrest recover (Flow cytometry) Vpr G2% [3]: 22.13%
- G2 arrest recover (Flow cytometry) Vpr G2/G1 [3]: 0.52 and 0.5299
- G2 arrest recover (Flow cytometry) ZsG G1% [3]: 44.2%
- G2 arrest recover (Flow cytometry) ZsG G2% [3]: 25.62%
- G2 arrest recover (Flow cytometry) ZsG G2/G1 [3]: 0.57 and 0.5796
- CC50 at 48 h [4]: 17.9 ± 5.3 µM
- viability at 10 days, 10 µM [4]: 82%
- inhibition of HIV-1 replication in MDM (HIV-1 NF462): potently inhibited HIV-1 replication
- inhibition at 10 µM (HIV-1 NF462; [10]): 99.5%
- inhibition at 10 µM (HIV-1 NF462; [11]): 103%
- IC50 (HIV-1 NF462; [12]): 0.78 ± 0.59 µM
- MDM SI (HIV-1 NF462): 22.9
- Kd (GST-tagged Vpr protein): 8.8 ± 0.48 µM
- localization of Vpr in HeLa cells (Flag-Vpr in HeLa cells [5]): not affected
- expression level of Vpr in HeLa cells (Flag-Vpr in HeLa cells [6]): not affected

SMILES: COc1ccc2ccccc2c1C1C=C(c2ccccc2)NC(=S)N1 (stereo not shown) [VTD232, 4-(2-methoxy-1-naphthyl)-6-phenyl-3,4-dihydro-2(1H)-pyrimidinethione]
- viability at 48 h, 10 µM [1, 7]: 87.5%
- viability at 48 h, 10 µM [1, 8]: 88%
- viability at 48 h, 10 µM [1, 9]: 87%
- CC50 [1]: 57.1 ± 30.9 µM
- G2 arrest recover (CELAVIEW) cell count vs DMSO [2]: 95.1
- G2 arrest recover (CELAVIEW) recover rate vs DMSO(%) [2]: 49.2%
- recovery of the G2-arrest mediated by Vpr (flow cytometry) [3]: recovered the G2-arrest mediated by Vpr
- G2 arrest recover (Flow cytometry) Vpr G1% [3]: 29.06%
- G2 arrest recover (Flow cytometry) Vpr G2% [3]: 39.99%
- G2 arrest recover (Flow cytometry) Vpr G2/G1 [3]: 1.376
- G2 arrest recover (Flow cytometry) ZsG G1% [3]: 49.39%
- G2 arrest recover (Flow cytometry) ZsG G2% [3]: 11.48%
- G2 arrest recover (Flow cytometry) ZsG G2/G1 [3]: 0.2324
- CC50 at 48 h [4]: 30.5 ± 5 µM
- viability at 10 days, 10 µM [4]: 116%
- inhibition of HIV-1 replication in MDM (HIV-1 NF462): potently inhibited HIV-1 replication
- inhibition at 10 µM (HIV-1 NF462; [10]): 99.1%
- inhibition at 10 µM (HIV-1 NF462; [11]): 82.2%
- IC50 (HIV-1 NF462; [12]): 0.0039 ± 0.0046 µM
- MDM SI (HIV-1 NF462): 7820
- direct binding to Vpr (SPR) (GST-tagged Vpr protein): did not directly bind to Vpr
- Vpr Binding Kd (GST-tagged Vpr protein): Not binding
- localization of Vpr in HeLa cells (Flag-Vpr in HeLa cells [5]): not affected
- expression level of Vpr in HeLa cells (Flag-Vpr in HeLa cells [6]): not affected

SMILES: CCOc1ccc(OCC(=O)Nc2cc(C)nn2-c2nc(C)c(CC)c(O)n2)cc1 [VTD263, 2-(4-ethoxyphenoxy)-N-[1-(5-ethyl-6-methyl-4-oxo(3-hydropyrimidin-2-yl))-3-methylpyrazol-5-yl]acetamide]
- viability at 48 h, 10 µM [1, 7]: 70.1%
- viability at 48 h, 10 µM [1, 8]: 65.5%
- viability at 48 h, 10 µM [1, 9]: 74.7%
- CC50 [1]: > 100 µM
- G2 arrest recover (CELAVIEW) cell count vs DMSO [2]: 81.6
- G2 arrest recover (CELAVIEW) recover rate vs DMSO(%) [2]: 95.5%
- recovery of the G2-arrest mediated by Vpr (flow cytometry) [3]: recovered the G2-arrest mediated by Vpr
- G2 arrest recover (Flow cytometry) Vpr G1% [3]: 45.86%
- G2 arrest recover (Flow cytometry) Vpr G2% [3]: 23.17%
- G2 arrest recover (Flow cytometry) Vpr G2/G1 [3]: 0.5052
- G2 arrest recover (Flow cytometry) ZsG G1% [3]: 43.35%
- G2 arrest recover (Flow cytometry) ZsG G2% [3]: 18.73%
- G2 arrest recover (Flow cytometry) ZsG G2/G1 [3]: 0.4321
- CC50 at 48 h [4]: 38.8 ± 0.76 µM
- viability at 10 days, 10 µM [4]: 131%
- inhibition of HIV-1 replication in MDM (HIV-1 NF462): potently inhibited HIV-1 replication
- effect on HIV-1 replication at low concentration (HIV-1 NF462; 0.01 to 0.001 μM, MDM): tended to increase HIV-1 replication
- IC50 (HIV-1 NF462; Human immunodeficiency virus 1, […]): 11.4 ± 4 µM
- inhibition at 10 µM (HIV-1 NF462; [10]): 91.2%
- inhibition at 10 µM (HIV-1 NF462; [11]): 73.3%
- effect on HIV-1 virus release at high concentration (HIV-1 NF462; high concentration, MDM): decreased the HIV-1 virus release
- MDM SI (HIV-1 NF462): 3.4
- direct binding to Vpr (SPR) (GST-tagged Vpr protein): did not directly bind to Vpr
- Vpr Binding Kd (GST-tagged Vpr protein): Not binding
- localization of Vpr in HeLa cells (Flag-Vpr in HeLa cells [5]): not affected
- expression level of Vpr in HeLa cells (Flag-Vpr in HeLa cells [6]): not affected
